SMILES strings stand for the structures.

This data set has as its system adult human hepatocytes. Nature of the data set: Adult human hepatocyte organoids grown in different concentrations of A83-01. Conditions: albumin secretion and organoid cross-sectional area readouts. Format: cell-based. The method, then:
In this Example, adult human hepatocytes were grown in different concentrations of A83-01, ranging from 0 nM to 40 nM. FIG. 16 illustrates albumin secretion of hepatocytes grown with 6 different concentrations of A83-01 measured by human albumin ELISA. FIG. 17 illustrates average cross-sectional area of organoids in individual wells grown in 4 different concentrations of A83-01 ranging from 0 to 100 nM. Data is represented as the mean, plus or minus standard deviation of more than 20 wells. FIG. 18 illustrates albumin secretion measured by human Albumin ELISA, comparing adult human hepatocyte organoids grown in 5 different concentrations of A83-01 ranging from 0 nM to 40 nM. The results of these studies illustrate that medium containing less than 50 nM of A83-01 is effective for adult hepatocyte growth.

On to `Cc1cccc(-c2nn(C(=S)Nc3ccccc3)cc2-c2ccnc3ccccc23)n1` [A83-01], for which the “A83-01 concentration in medium effective for adult hepatocyte growth” value is on record as “less than 50 nM”.
